The data set concerns the target T1, CYP1A2 (Homo sapiens, UniProt P05177).
T1 sequence (P05177 1-516): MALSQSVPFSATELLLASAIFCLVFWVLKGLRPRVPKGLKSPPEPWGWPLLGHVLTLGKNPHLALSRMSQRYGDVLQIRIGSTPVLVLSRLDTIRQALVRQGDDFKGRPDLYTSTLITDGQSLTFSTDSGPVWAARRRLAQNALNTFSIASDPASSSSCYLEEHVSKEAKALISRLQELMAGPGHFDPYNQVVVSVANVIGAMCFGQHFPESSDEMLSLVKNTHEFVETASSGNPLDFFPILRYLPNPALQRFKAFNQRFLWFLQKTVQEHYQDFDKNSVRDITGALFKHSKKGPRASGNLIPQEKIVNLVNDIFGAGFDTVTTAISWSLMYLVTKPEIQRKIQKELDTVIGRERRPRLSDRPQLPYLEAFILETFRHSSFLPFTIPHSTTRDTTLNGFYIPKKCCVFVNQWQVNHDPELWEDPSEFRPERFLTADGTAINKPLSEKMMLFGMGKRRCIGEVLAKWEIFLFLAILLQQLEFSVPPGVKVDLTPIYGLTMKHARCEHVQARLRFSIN
The data set is described as follows: in vitro. Format: biochemical.

The mark [1] stands for this setting: human, recombinant enzyme, pH 7.4.
Where [2] appears, read: recombinant enzyme, pH 7.4, 1 μM active ingredient, Rh CYP1A2-mediated phenacetin O-deethylation, test dataset of 202 herb ingredients, read-out: % of Control Indication Activity (Mean).
Where [3] appears, read: human, recombinant human CYP1A2, pH 7.4, probe phenacetin (25 μM), O-deethylation to acetaminophen, 1 μM active ingredient, Rh CYP1A2-mediated phenacetin O-deethylation, test dataset of 202 herb ingredients, read-out: % of Control Indication Activity (Mean).
Setting [4] is: 1 μM active ingredient, Rh CYP1A2-mediated phenacetin O-deethylation, test dataset of 202 herb ingredients.
Setting [5] is: human, recombinant human CYP1A2, pH 7.4, probe phenacetin (25 μM), O-deethylation to acetaminophen, 1 μM test compound, 25 μM phenacetin, average of duplicate determinations, read-out: % of Control Indication Activity.

Molecules are shown by their SMILES. Structures can show the parent of a compound that is named as a salt. Where two headings read alike, the source gives them in different places.
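Note: recombinant CYP1A2 incubated for 1 h at 37 °C, with the reaction started by an NADPH-generating system.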

Description: A total of 18 candidate compounds selected by pharmacophore and docking were examined for their potential to inhibit rhCYP1A2 phenacetin O-deethylation activity at a test concentration of 1 μM.
The basic incubation medium contained 100 mM potassium phosphate buffer (PH 7.4), 50 pmol recombinant human CYP1A2, 25 μM phenacetin and 1 μM active ingredients. The final incubation volume was 200 μL. After 5 min pre-incubation at 37 °C, the reaction was initiated by the addition of NADPH-generating system (5 mM MgCl2, 10 mM glucose 6-phosphates, 1 mM NADPH, and 2.5 U per mL glucose 6-phosphate dehydrogenase). Incubations were performed in a 37 °C shaking water bath for 1 h. Reactions were stopped by adding 0.4 mL of ice-cold acetonitrile containing 0.2 mg/L tinidazole (IS). […] The column was maintained at 35 °C and the injection volume was 10 μL.

As for `COc1cc(C(=O)O[C@H]2[C@@H]3C=CO[C@@H](O[C@@H]4O[C@H](CO)[C@@H](O)[C@H](O)[C@H]4O)[C@@H]3[C@@]3(CO)O[C@@H]23)ccc1O` [Picroside-II], the activity at 1 h, 1 μM under setting [1] was more than 90%.

`O=C(/C=C/C=C/c1ccc2c(c1)OCO2)N1CCCCC1` [Piperine]: the activity at 1 h, 1 μM under setting [2] was more than 90%.

Turning to `OC[C@H]1O[C@@H](Oc2cc(O)cc(/C=C/c3ccc(O)cc3)c2)[C@H](O)[C@@H](O)[C@@H]1O` [Polydatin], under setting [3], the activity at 1 h, 1 μM is more than 90%.

With `C/C=C(/C)C(=O)O[C@H]1[C@@H](OC(C)=O)c2c(ccc3ccc(=O)oc23)OC1(C)C` [Praeruptorin A], the “% of Control Indication Activity (Mean)” value under setting [4] is listed as more than 90%.

With `O=C(O)c1ccc(O)c(O)c1` [Protocatechuic acid], the activity at 1 h, 1 μM under setting [3] was more than 90%.

As to `CN1CCc2cc3c(cc2C(=O)Cc2ccc4c(c2C1)OCO4)OCO3` [Protopine], the activity at 1 h, 1 μM under setting [1] was more than 90%.

As to `COC(=O)C1=CC[C@@]23CC[C@@H]([C@@](C)(/C=C/C=C(\C)C(=O)O)OC2=O)[C@@]3(OC(C)=O)CC1` [Pseudolaric acid B], under setting [3], the activity at 1 h, 1 μM was more than 90%.

As to `O=c1ccc2cc3ccoc3cc2o1` [Psoralen], under setting [2], the activity at 1 h, 1 μM was found to be 10.8%.

Turning to `O=c1c(-c2ccc(O)cc2)coc2c([C@@H]3O[C@H](CO)[C@@H](O)[C@H](O)[C@H]3O)c(O)ccc12` [Puerarin], under setting [1], the activity at 1 h, 1 μM is more than 90%.

As for `CC(C)=C1CC[C@@H](C)CC1=O` [Pulegone], the activity at 1 h, 1 μM under setting [3] is more than 90%.

Take `O=c1c(O)c(-c2ccc(O)c(O)c2)oc2cc(O)cc(O)c12` [Quercetin]: under setting [3], the activity at 1 h, 1 μM was more than 90%.

Regarding `C[C@@H]1O[C@@H](Oc2c(-c3ccc(O)c(O)c3)oc3cc(O)cc(O)c3c2=O)[C@H](O)[C@H](O)[C@H]1O` [Quercitrin], the activity under setting [2] is more than 90%.

Take `C[C@]12CC[C@H](O)C[C@H]1CC[C@@H]1[C@@H]2CC[C@]2(C)[C@@H](c3ccc(=O)oc3)C[C@H]3O[C@]132` [Resibufogenin]: the activity at 1 h, 1 μM under setting [2] is more than 90%.

Take `O=C(O)c1cc(O)c2c(c1)C(=O)c1cccc(O)c1C2=O` [Rhein]: the activity at 1 h, 1 μM under setting [3] was more than 90%.

With `C[C@@H]1O[C@@H](Oc2cc(O)c3c(=O)c(O)c(-c4ccc(O)cc4)oc3c2O)[C@H](O)[C@H](O)[C@H]1O` [Rhodionin], under setting [1], the activity at 1 h, 1 μM is more than 90%.

As to `O=c1c2ccccc2nc2n1CCc1c-2[nH]c2ccccc12` [Rutaecarpine], under setting [1], the activity at 1 h, 1 μM was more than 90%.

Consider `C[C@@H]1O[C@@H](OC[C@H]2O[C@@H](Oc3c(-c4ccc(O)c(O)c4)oc4cc(O)cc(O)c4c3=O)[C@H](O)[C@@H](O)[C@@H]2O)[C@H](O)[C@H](O)[C@H]1O` [Rutin], for which the activity at 1 h, 1 μM under setting [1] is more than 90%.

For `C[C@H]1O[C@@H](O[C@H]2CC[C@@]3(C)[C@@H](CC[C@]4(C)[C@@H]3C=C[C@]35OC[C@@]6(CCC(C)(C)C[C@H]63)[C@@H](O)C[C@]54C)[C@]2(C)CO)[C@H](O)[C@@H](O[C@@H]2O[C@H](CO)[C@@H](O)[C@H](O)[C@H]2O)[C@H]1O` [Saikosaponin A], under setting [1], the activity at 1 h, 1 μM was more than 90%.

Take `OC[C@H]1O[C@@H](OCCc2ccc(O)cc2)[C@H](O)[C@@H](O)[C@@H]1O` [Salidroside]: the activity at 1 h, 1 μM under setting [1] was more than 90%.

On to `C[C@H]1CC[C@@]2(OC1)O[C@H]1C[C@H]3[C@@H]4CC[C@@H]5C[C@@H](O)CC[C@]5(C)[C@H]4CC[C@]3(C)[C@H]1[C@@H]2C` [Sarsasapogenin], for which the activity under setting [2] is more than 90%.

For the compound `COc1cc2c(c(OC)c1OC)-c1c(cc(OC)c(OC)c1OC)C[C@](C)(O)[C@@H](C)C2` [Schizandrin], the activity at 1 h, 1 μM under setting [3] is more than 90%.

For the compound `CN1[C@@H]2C[C@@H](OC(=O)[C@H](CO)c3ccccc3)C[C@H]1[C@@H]1O[C@@H]12` [Scopolamine Hydrobromide], the activity (recombinant enzyme, pH 7.4) is more than 90%.

With `COc1cc2ccc(=O)oc2cc1O` [Scopoletin], under setting [3], the activity at 1 h, 1 μM is more than 90%.

Regarding `O=C(O)[C@H]1O[C@@H](Oc2cc3oc(-c4ccc(O)cc4)cc(=O)c3c(O)c2O)[C@H](O)[C@@H](O)[C@@H]1O` [Scutellarin], under setting [3], the activity at 1 h, 1 μM was more than 90%.

`c1cc2c(cc1[C@H]1OC[C@H]3[C@@H]1CO[C@@H]3c1ccc3c(c1)OCO3)OCO2` [Sesamin]: the activity under setting [2] was more than 90%.

In the case of `COc1cc(C2Oc3cc([C@H]4Oc5cc(O)cc(O)c5C(=O)[C@@H]4O)ccc3OC2CO)ccc1O` (stereo partly drawn) [Silibinin], the activity at 1 h, 1 μM under setting [1] was more than 90%.

On to `COc1cc(/C=C/C(=O)OCC[N+](C)(C)C)cc(OC)c1O` [Sinapine], for which the “% of Control Indication Activity (Mean)” value (recombinant enzyme) is on record as more than 90.

Consider `COC1=C[C@@H]2[C@@H]3Cc4ccc(OC)c(O)c4[C@]2(CCN3C)CC1=O` [Sinomenine], for which the activity (recombinant enzyme, pH 7.4) was more than 90%.

As to `O=c1c(-c2ccc(O[C@@H]3O[C@H](CO)[C@@H](O)[C@H](O)[C@H]3O)cc2)coc2cc(O)cc(O)c12` [Sophoricoside], the activity at 1 h, 1 μM under setting [3] is more than 90%.

Regarding `O=C1C[C@@H]2OCC=C3CN4CC[C@]56c7ccccc7N1[C@H]5[C@H]2[C@H]3C[C@H]46` [Strychnine], the activity at 1 h, 1 μM under setting [2] is more than 90%.

Consider `CNCC(O)c1ccc(O)cc1` (stereo not drawn) [Synephrine], for which the activity at 1 h, 1 μM under setting [1] was more than 90%.

In the case of `COc1cc(/C=C/CO)cc(OC)c1O[C@@H]1O[C@H](CO)[C@@H](O)[C@H](O)[C@H]1O` [Syringin], the activity at 1 h, 1 μM under setting [1] was more than 90%.

`Cc1c(O)c(C)c2oc(-c3ccc(O)cc3)cc(=O)c2c1O` [Syzalterin]: the “% of Control Indication Activity (Mean)” value under setting [4] is more than 90%.

With `Cc1coc2c1C(=O)C(=O)c1c-2ccc2c1CCCC2(C)C` [Tanshinone IIA], the activity at 1 h, 1 μM under setting [3] was determined as 28.3%.

With `COc1c(O[C@@H]2O[C@H](CO)[C@@H](O)[C@H](O)[C@H]2O)cc2occ(-c3ccc(O)cc3)c(=O)c2c1O` [Tectoridin], the activity at 1 h, 1 μM under setting [3] was more than 90%.

Consider `COc1cc2c(cc1OC)[C@@H]1Cc3ccc(OC)c(OC)c3CN1CC2` [Tetrahydropalmatine], for which, under setting [3], the activity at 1 h, 1 μM was more than 90%.

Regarding `COc1ccc2cc1Oc1ccc(cc1)C[C@H]1c3cc(c(OC)cc3CCN1C)Oc1c(OC)c(OC)cc3c1[C@H](C2)N(C)CC3` [Tetrandrine], the activity at 1 h, 1 μM under setting [1] is more than 90%.

Consider `Cc1ccc(C(C)C)c(O)c1` [Thymol], for which the activity at 1 h, 1 μM under setting [3] is more than 90%.

`COc1cc(-c2oc3cc(O)cc(O)c3c(=O)c2O[C@@H]2O[C@H](CO[C@@H]3O[C@@H](C)[C@H](O)[C@@H](O)[C@H]3O)[C@@H](O)[C@H](O)[C@H]2O[C@@H]2O[C@@H](C)[C@H](O)[C@@H](O)[C@H]2O)ccc1O` [Typhaneoside]: the “% of Control Indication Activity (Mean)” value under setting [4] is more than 90%.

With `COc1cc(C(=O)O)ccc1O` [Vanillic acid], under setting [1], the activity at 1 h, 1 μM is more than 90%.

As for `COc1ccc(-c2oc3cc(OC)c(OC)c(O)c3c(=O)c2OC)cc1O` [Vitexicarpin], the “% of Control Indication Activity (Mean)” value under setting [4] is more than 90%.

Consider `C[C@@H]1O[C@@H](O[C@@H]2[C@@H](O)[C@H](O)[C@@H](CO)O[C@H]2c2c(O)cc(O)c3c(=O)cc(-c4ccc(O)cc4)oc23)[C@H](O)[C@H](O)[C@H]1O` [Vitexin rhamnoside], for which the “% of Control Indication Activity (Mean)” value under setting [4] was more than 90%.

In the case of `O=c1cc(-c2ccc(O)cc2)oc2c([C@@H]3O[C@H](CO)[C@@H](O)[C@H](O)[C@H]3O)c(O)cc(O)c12` [Vitexin], under setting [3], the activity at 1 h, 1 μM is more than 90%.

`COc1c(O)cc(O)c2c(=O)cc(-c3ccccc3)oc12` [Wogonin]: under setting [3], the activity at 1 h, 1 μM is 74.6%.

`COc1cc(O)c2c(=O)c(O[C@@H]3O[C@H](CO)[C@H](O)[C@H](O)[C@H]3O)c(-c3ccc(O)c(O)c3)oc2c1` [zhang 83, rhamnetin 3-O-β-D-galactopyranoside]: the activity at 1 h, 1 μM under setting [5] is more than 90%.

`COc1cc(O)c2c(=O)c(O[C@@H]3O[C@H](CO)[C@@H](O)[C@H](O)[C@H]3O)c(-c3ccc(O)c(O)c3)oc2c1` [zhang 84, rhamnetin 3-O-β-D-glucopyranoside]: the activity at 1 h, 1 μM under setting [5] was more than 90%.

For `CC(C)=CCC/C(C)=C/Cc1c(O)cc(O)c2c(=O)c3c(O)c4c(cc3oc12)OCO4` [zhang 89, 1,6,8-trihydroxy-2,3-methylenedioxy-5-geranylxanthone], under setting [5], the activity at 1 h, 1 μM was more than 90%.

Regarding `O=c1c(O[C@@H]2OC[C@@H](O)[C@@H](O)[C@@H]2O)c(-c2ccc(O)c(O)c2)oc2cc(O)cc(O)c12` [zhang 205, quercetin-3-O-β-D-arabinopyranoside], the activity at 1 h, 1 μM under setting [5] is more than 90%.

For the compound `O=c1c(OC2OC(CO)C(O)C2O)c(-c2ccc(O)c(O)c2)oc2cc(O)cc(O)c12` [zhang 206, quercetin-3-O-α-D-arabinofuranose], the activity at 1 h, 1 μM under setting [5] was more than 90%.

As to `COc1cc(C2Oc3c(ccc4ccc(=O)oc34)O[C@H]2CO)ccc1O` (stereo partly drawn) [zhang 271, 5′-demethoxy Daphneticin], the activity at 1 h, 1 μM under setting [5] is more than 90%.

For the compound `COc1cc(O)c2c(=O)cc(-c3ccc(O)c(O)c3)oc2c1` [zhang 272, 3′-hydroxy-Genkwanin], the activity at 1 h, 1 μM under setting [1] is less than 90%.

For the origin of these results see publication PMC3116189, “Novel Natural Inhibitors of CYP1A2 Identified by in Silico and in Vitro Screening” (International Journal of Molecular Sciences, 2011).
